According to patent US5514662A, “Use of amphotericin B derivatives as protease inhibitors” (priority 1991, dated 1996):
Read-outs that look alike come from different tables or passages of the source. One block for each molecule: values may come before it.

How the values were obtained:
[1] = system: HIV-1; conditions: cited from earlier work
[2] = target: T1, trypsin (Bos taurus, UniProt P00760); assay: Inhibition of trypsin; format: biochemical
T1 sequence (P00760 24-246): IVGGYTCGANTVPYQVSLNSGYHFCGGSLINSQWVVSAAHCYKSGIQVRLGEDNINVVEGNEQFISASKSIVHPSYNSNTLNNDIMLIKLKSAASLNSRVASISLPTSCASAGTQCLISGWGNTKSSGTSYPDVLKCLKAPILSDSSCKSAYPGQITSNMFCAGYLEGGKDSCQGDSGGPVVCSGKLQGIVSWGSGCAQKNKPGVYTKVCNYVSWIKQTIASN

[3] = system: HIV-1; conditions: T cells infected in vitro; cited from earlier work
[4] = system: HIV; conditions: cited from earlier work
[5] = patients; cited from earlier work
[6] = system: HRV14; assay: Cytopathogenic effect of HRV14 in HeLa-Ohio cells; format: cell-based; conditions: 0.03 to 100 μM, added 1 hour after infection
Method: HeLa-Ohio cells cultured until they have become confluent, are infected with a suspension of HRV14 virus. The cytopathogenic effect of the virus is evaluated by staining the cells with a 0.5% solution of crystal violet and 20% of methanol; after rinsing the plates with water, the optical density is read at 550 nm.
For the rest of the experiment, the cells are infected with a viral suspension with a titre such that 50% of the cells are killed after 3 days on control cells not receiving any treatment. 1 hour after the infection, the test product (AmB or DABF-AmB) is added at concentrations ranging from 0.03 to 100 μM. The percentage inhibition of the cytopathogenic effect is determined as follows:
OD (treated infected cells)-OD (infected cells)!
OD (healthy cells)-OD (infected cells)!
The effect of the addition of DABF-AmB was tested at various times: preincubation of the cells with DABF-AmB before the viral infection; addition of DABF-AmB at the time of the infection; addition of DABF-AmB after the infection, during the period of viral proliferation.

[7] = Cytotoxicity in HeLa-Ohio cells; format: cell-based, human; conditions: human, hela-ohio cells; read-out: concentration above which cytotoxic
[8] = system: DNA and RNA viruses containing a lipid envelope; conditions: in vitro; cited from earlier work
[9] = read-out: % inhibition of trypsin relative to a control without inhibitor

Molecule: COC(=O)[C@H]1[C@@H]2C[C@@H](O[C@@H]3O[C@H](C)[C@@H](O)[C@H](N)[C@@H]3O)/C=C/C=C/C=C/C=C/C=C/C=C/C=C/[C@H](C)[C@@H](O)[C@@H](C)[C@H](C)OC(=O)C[C@H](O)C[C@H](O)CC[C@@H](O)[C@H](O)C[C@H](O)C[C@](O)(C[C@@H]1O)O2 [AME, methyl ester of amphotericin B]
capacity of preincubated HIV-infected lymphocytes to form syncytia with uninfected cells ([1]; HIV-infected lymphocytes preincubated): increased | inhibition of infection by preincubation of healthy lymphocytes prior to infection ([1]; lymphocytes preincubated): inhibits the infection | inhibition at 1 µM [2, 9]: ~10% | inhibition of cell death and of viral expression [3]: inhibitors of cell death and of viral expression

Molecule: Cc1cn([C@H]2C[C@H](N=[N+]=[N-])[C@@H](CO)O2)c(=O)[nH]c1=O [AZT, 3'-azido-2',3'-dideoxythymidine]
side effects of treatment ([4]; human, in vivo): severe side effects of treatment with AZT, in particular a degeneration of bone marrow | clinical condition of AIDS patients [4]: improvement of the clinical condition of patients

Molecule: C[C@@H]1[C@H](O)[C@@H](C)/C=C/C=C/C=C/C=C/C=C/C=C/C=C/[C@H](O[C@@H]2O[C@H](C)[C@@H](O)[C@H](N)[C@@H]2O)C[C@@H]2O[C@](O)(C[C@@H](O)C[C@@H](O)[C@H](O)CC[C@@H](O)C[C@@H](O)CC(=O)O[C@H]1C)C[C@H](O)[C@H]2C(=O)O [AmB, amphotericin B]
inhibition of trypsin (in words) [2]: a certain inhibitory activity on trypsin | inhibition at 10 µM ([2]; 10^-5 M): 30% | inhibition at 1 µM ([2]; 10^-6 M, read-out: % of inhibition of trypsin): 10% | inhibition at 0.1 µM ([2]; 10^-7 M): 5% | inhibition at 1 µM [2, 9]: ~10% | side effects of prolonged treatment [5]: frequent side effects such as fever or serious nephrotoxicity | antiviral activity on HRV14 (in words) [6]: no detectable antiviral activity | MCC [7]: > 5 µM | activity against enveloped DNA and RNA viruses and herpes virus strains [8]: active in vitro

inhibition at 1 µM ([2]; 1 μM, FIG. 1, read-out: % inhibition of trypsin relative to a control without inhibitor): ~40%
Molecule: C[C@@H]1[C@H](O)[C@@H](C)/C=C/C=C/C=C/C=C/C=C/C=C/C=C/[C@H](O[C@@H]2O[C@H](C)[C@@H](O)[C@H](NC(=O)C(N)CC(=O)O)[C@@H]2O)C[C@@H]2O[C@](O)(C[C@@H](O)C[C@@H](O)[C@H](O)CC[C@@H](O)C[C@@H](O)CC(=O)O[C@H]1C)C[C@H](O)[C@H]2C(=O)O (some centres unmarked) [N-aspartyl-AmB]

Molecule: CNC[C@H](O)[C@@H](O)[C@H](O)[C@H](O)CO [N-methylglucamine, reference compound]
antiviral activity on HRV14 (in words) [6]: no effect on the virus

Molecule: OC[C@@H]1CC[C@H](n2cnc3c(O)ncnc32)O1 [ddI, 2',3'-dideoxyinosine]
clinical condition of AIDS patients [4]: improvement of the clinical condition of patients

Molecule: N N'-(2,4'-methylmorpholino)-N"-ethylguanyl!amphotericin B [MCG]
cell-protecting properties [1]: does not possess, according to this study, cell-protecting properties | direct antiviral action ([1]; preincubation with the virus): has a direct antiviral action
